Columns and labels:
[1] = target: T1, tubulin (αβ-heterodimer, bovine brain; maytansine site on β-tubulin); experiment: equilibrium radioligand binding of 3H-S-methyl DM1 to tubulin-loaded liposomes (apparent Kd); set-up: species or system Bos taurus
T1 construct: with α-tubulin (αβ-heterodimer)

[2] = system: T2, tubulin (microtubule-assembled, in MCF7 cells); experiment: 3H-paclitaxel equilibrium binding to MCF7 cells, Scatchard; format: cell-based
T2 construct: endogenous cellular tubulin in MCF7 cells; with αβ-heterodimer in microtubules

## COc1cc2cc(c1Cl)N(C)C(=O)C[C@H](OC(=O)[C@H](C)N(C)C(=O)CCSC)[C@]1(C)O[C@H]1[C@H](C)[C@@H]1C[C@@](O)(NC(=O)O1)[C@H](OC)/C=C/C=C(\C)C2 [S-methyl DM1]
[1]
  Kd: 21.5 ± 0.07 nM

## CC(=O)O[C@H]1C(=O)[C@@]2(C)[C@H]([C@H](OC(=O)c3ccccc3)[C@]3(O)C[C@H](OC(=O)[C@H](O)[C@@H](NC(=O)c4ccccc4)c4ccccc4)C(C)=C1C3(C)C)[C@]1(OC(C)=O)CO[C@@H]1C[C@@H]2O [paclitaxel]
[2]
  Kd: 60 ± 10 nM
